We go through 23 compounds from US8951993B2, “Phosphorus containing compounds as protein kinase inhibitors” (Jiangsu Hansoh Pharmaceutical Co., Ltd., priority 2011, dated 2015).

As a reminder, the IC50 is the concentration needed to halve the response being measured. A higher IC50 goes with weaker potency. As usually defined, the half-life is the time needed for the level to fall by half in the phase considered. Read a high half-life as slow loss.

Molecules are shown by their SMILES.

The target of one data set is ALK (Homo sapiens, UniProt Q9UM73). Kind of data set: ALK enzyme activity assay (HTRF KinEASE). It counts as biochemical. On the set-up: purchased Millipore Company (Billerica, Mass., USA). The following applies: ATP 25 μM, 30° C. 30 minutes. How it is done: ALK Enzyme Activity Assay:
ALK kinase was purchased from Millipore Company (Billerica, Mass., USA). HTRF®KinEASET™ was purchased from Cisbio Company (Bedford, Mass., USA). The assay was conducted according to the procedure provided in the assay kit. In brief, incubation was carried out in the kinase buffer containing ALK (0.3 ng/μL), ATP (25 μM), TK substrate-biotin (10 μM), DTT (1 mM), MgCl2 (5 mM), MnCl2 (5 mM) in the presence of the tested articles at various concentrations in 384-well plate at 30° C. for 30 minutes. The reaction was stopped by addition of Sa-XL665 in EDTA solution, and the phosphorylated substrate was detected with a proprietary phospho-specific monoclonal antibody labeled with Eu^3+-Cryptate and a proprietary biotinylated kinase substrate detected using XL665 labeled streptavidin. IC50 value was calculated using median-effect method (Chou 2006).
(In general: In TR-FRET formats the signal depends on donor and acceptor labels being close together.)

Another data set concerns H2228. In words: Cell proliferation assay (MTS / BrdU), H2228. The class given is cell-based. The following applies: Homo sapiens, NCI-H2228; 72 hours, 2% FBS. How it is done: (§1) Karpas299 and SU-DHL-1 cells were purchased from Deutsche Sammlung von Mikroorganismen and Zellkulturen (Germany). H2228 was purchased from American Type Culture Collection (USA). All cells were cultured in the recommended medium and serum concentration. Cells were maintained at 37° C. in a humidified atmosphere with 5% CO2. For ALK kinase phosphorylation, cells were seeded in 96-well plates overnight in medium supplemented with 10% fetal bovine serum […]. After 24 hours, the medium was removed and cells were cultured in serum-free medium at 37° C. in the presence of various concentrations of the test articles for 1 hour. After incubation with the tested articles, cells were washed once with HBSS supplemented with 1 mM Na3VO4 and protein lysates were generated. Subsequently, phosphorylation of ALK was assessed by a sandwich ELISA method using an immobilized anti-total-ALK antibody and an anti-phospho-ALK antibody (pY1604) as a detection antibody. IC50 value was calculated using median-effect method. (Chou 2006).
(§2) For cell proliferation assay, cells were seeded in 96-well pates at low density at 37° C. in medium supplemented with 10% FBS and after 24 hours were switched to low serum medium (2% FBS). Cells were further incubated in the presence of the test articles at various concentrations at 37° C. for 72 hours. Two assays were employed to determine the relative cell numbers. One is a 3-(4,5-dimethylthiazol-2-yl)-5-(3-carboxymethoxyphenyl)-2-(4-sulfophenyl)-2H-tetrazolium (MTS) assay using a CellTiter 96® Aqueous Non-Radioactive Cell Proliferation kit (Promega), and the other is a BrdU incorporation assay using a DELFIA® Cell Proliferation Kit (Perkin Elmer). IC50 value was calculated using median-effect method (Chou 2006).

In another data set the test system is SU-DHL-1. Kind of data set: Cell proliferation assay (MTS / BrdU), SU-DHL-1. It counts as cell-based. The following applies: Homo sapiens, 72 hours, 2% FBS. The method, then: as §1, §2
Data set [1] in a line: Pharmacokinetic assay, intravenous and oral administration. The following applies: plasma. It counts as in vivo, Sprague-Dawley rats or beagle dogs. How it is done: The tested articles were given to Sprague-Dawley rats or beagle dogs by intravenous and oral administration. Plasma samples were prepared from blood samples which were collected at various time points. The plasma concentrations of the tested articles were determined by specific LC-MS/MS analytical methods. Pharmacokinetic parameters were calculated with WinNonlin®.

The next data set deals with Karpas299. Kind of data set: Cell proliferation assay (MTS / BrdU), Karpas299. It counts as cell-based. The following applies: Homo sapiens, KARPAS-299; 72 hours, 2% FBS. The method, then:
as §1, §2

Chain of ALK (Q9UM73 19-1620): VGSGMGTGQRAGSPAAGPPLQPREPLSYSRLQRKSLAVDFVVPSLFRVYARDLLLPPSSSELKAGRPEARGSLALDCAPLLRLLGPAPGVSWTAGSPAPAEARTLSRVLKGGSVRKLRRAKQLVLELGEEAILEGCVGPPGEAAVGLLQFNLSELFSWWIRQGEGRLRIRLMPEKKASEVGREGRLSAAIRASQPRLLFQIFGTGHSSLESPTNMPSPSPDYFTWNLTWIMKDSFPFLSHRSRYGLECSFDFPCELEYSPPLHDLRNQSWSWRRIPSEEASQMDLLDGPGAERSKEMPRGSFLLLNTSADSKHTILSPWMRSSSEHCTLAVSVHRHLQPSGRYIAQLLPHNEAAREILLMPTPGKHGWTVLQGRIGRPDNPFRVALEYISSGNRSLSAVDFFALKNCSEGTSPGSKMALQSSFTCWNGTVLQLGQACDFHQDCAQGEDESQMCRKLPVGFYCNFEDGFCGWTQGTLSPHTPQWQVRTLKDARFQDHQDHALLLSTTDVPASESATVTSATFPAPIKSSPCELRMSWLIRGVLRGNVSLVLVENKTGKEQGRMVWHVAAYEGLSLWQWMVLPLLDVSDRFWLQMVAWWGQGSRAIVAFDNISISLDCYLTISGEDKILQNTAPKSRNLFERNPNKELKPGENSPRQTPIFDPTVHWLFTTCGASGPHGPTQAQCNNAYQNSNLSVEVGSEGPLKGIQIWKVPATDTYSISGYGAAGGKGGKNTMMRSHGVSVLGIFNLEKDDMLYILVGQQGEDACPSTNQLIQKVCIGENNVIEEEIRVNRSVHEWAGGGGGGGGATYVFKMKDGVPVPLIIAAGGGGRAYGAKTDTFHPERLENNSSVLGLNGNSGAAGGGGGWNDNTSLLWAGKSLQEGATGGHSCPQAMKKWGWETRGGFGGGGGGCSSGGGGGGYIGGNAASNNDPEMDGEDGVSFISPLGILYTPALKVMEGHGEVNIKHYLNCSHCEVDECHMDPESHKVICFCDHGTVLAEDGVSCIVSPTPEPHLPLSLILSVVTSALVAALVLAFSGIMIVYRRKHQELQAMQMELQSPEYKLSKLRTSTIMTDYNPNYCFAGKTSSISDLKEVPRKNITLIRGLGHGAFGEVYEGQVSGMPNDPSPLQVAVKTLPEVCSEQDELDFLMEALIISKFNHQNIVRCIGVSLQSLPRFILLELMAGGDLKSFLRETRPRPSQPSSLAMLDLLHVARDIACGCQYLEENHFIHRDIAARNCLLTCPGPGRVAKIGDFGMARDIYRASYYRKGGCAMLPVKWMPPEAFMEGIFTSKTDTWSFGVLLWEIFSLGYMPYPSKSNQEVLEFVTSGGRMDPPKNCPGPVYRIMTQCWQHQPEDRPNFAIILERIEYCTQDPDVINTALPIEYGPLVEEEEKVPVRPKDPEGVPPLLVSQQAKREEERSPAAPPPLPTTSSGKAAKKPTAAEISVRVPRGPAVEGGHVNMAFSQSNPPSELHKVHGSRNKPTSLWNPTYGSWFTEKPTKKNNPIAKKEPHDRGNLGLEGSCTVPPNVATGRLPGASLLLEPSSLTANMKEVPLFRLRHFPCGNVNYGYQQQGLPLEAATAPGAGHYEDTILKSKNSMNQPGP

Regarding `CC(Oc1cc(-c2cnn(CP(C)(C)=O)c2)cnc1N)c1c(Cl)ccc(F)c1Cl` (stereo not drawn) [Example 3, 3-[1-(2,6-dichloro-3-fluoro-phenyl)ethoxy]-5-[1-(dimethylphosphorylmethyl)pyrazol-4-yl]pyridin-2-amine], the IC50 on ALK was 100 to 500 nM.
As to `CC(Oc1cc(-c2ccc(CN(CP(C)(C)=O)CP(C)(C)=O)cc2)cnc1N)c1c(Cl)ccc(F)c1Cl` (stereo not drawn) [Example 4, 5-[4-[(bis(dimethylphosphorylmethyl)amino)methyl]phenyl]-3-[1-(2,6-dichloro-3-fluoro-phenyl)ethoxy]pyridin-2-amine], the IC50 was 1000 to 5000 nM in the data set with H2228 and 100 to 500 nM at ALK.
With `CC(Oc1cc(-c2ccc(CNCP(C)(C)=O)cc2)cnc1N)c1c(Cl)ccc(F)c1Cl` (stereo not drawn) [Example 5, 3-[1-(2,6-dichloro-3-fluoro-phenyl)ethoxy]-5-[4-[(dimethylphosphorylmethylamino)methyl]phenyl]pyridin-2-amine], the IC50 in the data set on H2228 fell in the range of 100 to 500 nM; in the data set on SU-DHL-1 it was 1000 to 5000 nM; at ALK, 100 to 500 nM.
Turning to `CC(Oc1cc(-c2cncc(P(C)(C)=O)c2)cnc1N)c1c(Cl)ccc(F)c1Cl` (stereo not drawn) [Example 6, 3-[1-(2,6-dichloro-3-fluoro-phenyl)ethoxy]-5-(5-dimethylphosphoryl-3-pyridyl)pyridin-2-amine], the values for the IC50 in the data set with H2228, in the data set on SU-DHL-1 and against ALK were 100 to 500 nM, 1000 to 5000 nM and 100 to 500 nM, respectively.
As for `CC(Oc1cc(-c2ccc(COP(C)(C)=O)cc2)cnc1N)c1c(Cl)ccc(F)c1Cl` (stereo not drawn) [Example 7, 3-[1-(2,6-dichloro-3-fluoro-phenyl)ethoxy]-5-[4-(dimethylphosphoryloxymethyl)phenyl]pyridin-2-amine], the IC50 on ALK was 100 to 500 nM.
The same measure, in the same setting: the figure for `CC(Oc1cc(-c2ccc(P(C)(C)=O)c3ccccc23)cnc1N)c1c(Cl)ccc(F)c1Cl` (stereo not drawn) [Example 9, 3-[1-(2,6-dichloro-3-fluoro-phenyl)ethoxy]-5-(4-dimethylphosphoryl-1-naphthyl)pyridin-2-amine] is 1000 to 5000 nM; for `COc1cc(-c2cnc(N)c(OC(C)c3c(Cl)ccc(F)c3Cl)c2)c(F)cc1P(C)(C)=O` (stereo not drawn) [Example 10, 3-[1-(2,6-dichloro-3-fluoro-phenyl)ethoxy]-5-(4-dimethylphosphoryl-2-fluoro-5-methoxy-phenyl)pyridin-2-amine] it is 1000 to 5000 nM.
Take `CC(Oc1nc(-c2ccc(P(C)(C)=O)cc2)cnc1N)c1c(Cl)ccc(F)c1Cl` (stereo not drawn) [Example 11, 3-[1-(2,6-dichloro-3-fluoro-phenyl)ethoxy]-5-(4-dimethylphosphorylphenyl)pyrazin-2-amine]: the IC50 with SU-DHL-1 and against ALK was 100 to 500 nM each time.
`COc1cc(-c2cnc(N)c(OC(C)c3c(Cl)ccc(F)c3Cl)c2)ccc1P(C)(C)=O` (stereo not drawn) [Example 12, 3-[1-(2,6-dichloro-3-fluoro-phenyl)ethoxy]-5-(4-dimethylphosphoryl-3-methoxy-phenyl)pyridin-2-amine]: on ALK, the IC50 was < 100 nM.
Regarding `CC(Oc1cc(-c2ccc(P(C)(C)=O)cc2F)cnc1N)c1c(Cl)ccc(F)c1Cl` (stereo not drawn) [Example 13, 3-[1-(2,6-dichloro-3-fluoro-phenyl)ethoxy]-5-(4-dimethylphosphoryl-2-fluoro-phenyl)pyridin-2-amine], the concentration for half-maximal inhibition (IC50) with SU-DHL-1 is 100 to 500 nM; at ALK it was < 100 nM; in the data set with Karpas299 it was < 100 nM. In addition, the half-life in data set [1] (after oral administration in rats or dogs) was > 3 h. For the same compound, the bioavailability in data set [1] (oral administration in rats or dogs, read-out: oral bioavailabilty) was > 20%.
With `CC(Oc1cc(-c2ccc(P(C)(C)=O)c(F)c2)cnc1N)c1c(Cl)ccc(F)c1Cl` (stereo not drawn) [Example 14, 3-[1-(2,6-dichloro-3-fluoro-phenyl)ethoxy]-5-(4-dimethylphosphoryl-3-fluoro-phenyl)pyridin-2-amine], the IC50 in the data set on SU-DHL-1 and against ALK was 1000 to 5000 nM each time.
Take `CC(Oc1cc(-c2ccc(P(C)(C)=O)cc2C(F)(F)F)cnc1N)c1c(Cl)ccc(F)c1Cl` (stereo not drawn) [Example 15, 3-[1-(2,6-dichloro-3-fluoro-phenyl)ethoxy]-5-[4-dimethylphosphoryl-2-(trifluoromethyl)phenyl]pyridin-2-amine]: the IC50 against ALK lay within 500 to 1000 nM.
Regarding `CC(Oc1cc(-c2ccc(P(C)(C)=O)nc2)cnc1N)c1c(Cl)ccc(F)c1Cl` (stereo not drawn) [Example 16, 3-[1-(2,6-dichloro-3-fluoro-phenyl)ethoxy]-5-(6-dimethylphosphoryl-3-pyridyl)pyridin-2-amine], the IC50 in the data set with SU-DHL-1 lay within 1000 to 5000 nM; against ALK it was 500 to 1000 nM.
Taken in the same sequence, the figures for `CC(Oc1cc(-c2ccc(P(C)(C)=O)cc2O)cnc1N)c1c(Cl)ccc(F)c1Cl` (stereo not drawn) [Example 17, 2-[6-amino-5-[1-(2,6-dichloro-3-fluoro-phenyl)ethoxy]-3-pyridyl]-5-dimethylphosphoryl-phenol] were < 100 nM and 100 to 500 nM.
On to `CC(Oc1cc(-c2ccc(P(C)(C)=O)cn2)cnc1N)c1c(Cl)ccc(F)c1Cl` (stereo not drawn) [Example 18, 3-[1-(2,6-dichloro-3-fluoro-phenyl)ethoxy]-5-(5-dimethylphosphoryl-2-pyridyl)pyridin-2-amine], for which the IC50 in the data set with SU-DHL-1, against ALK and with Karpas299 was 100 to 500 nM throughout.
Turning to `CC(Oc1cc(-c2ccc(P(C)(C)=O)cc2Cl)cnc1N)c1c(Cl)ccc(F)c1Cl` (stereo not drawn) [Example 19, 5-(2-chloro-4-dimethylphosphoryl-phenyl)-3-[1-(2,6-dichloro-3-fluoro-phenyl)ethoxy]pyridin-2-amine], the IC50 in the data set on SU-DHL-1 and at ALK was 100 to 500 nM each time.
Take `CC(Oc1cc(-c2ccc(P(C)(C)=O)cc2OC(F)(F)F)cnc1N)c1c(Cl)ccc(F)c1Cl` (stereo not drawn) [Example 20, 3-[1-(2,6-dichloro-3-fluoro-phenyl)ethoxy]-5-[4-dimethylphosphoryl-2-(trifluoromethoxy)phenyl]pyridin-2-amine]: the IC50 in the data set with SU-DHL-1 was 100 to 500 nM; against ALK, 500 to 1000 nM.
As for `CC(Oc1cc(-c2ccc(P(C)(C)=O)cc2)cnc1N)c1cc(Cl)ccc1Cl` (stereo not drawn) [Example 21, 3-[1-(2,5-dichlorophenyl)ethoxy]-5-(4-dimethylphosphorylphenyl)pyridin-2-amine], the IC50 is < 100 nM in the data set with SU-DHL-1 and 100 to 500 nM against ALK.
Take `CC(Oc1cc(-c2ccc(P(C)(C)=O)cc2)cnc1N)c1cc(F)ccc1Cl` (stereo not drawn) [Example 22, 3-[1-(2-chloro-5-fluoro-phenyl)ethoxy]-5-(4-dimethylphosphorylphenyl)pyridin-2-amine]: the IC50 with SU-DHL-1 was < 100 nM; against ALK it was 100 to 500 nM.
Take `CCOP(=O)(OCC)c1ccc(-c2cnc(N)c(OC(C)c3cc(F)ccc3Cl)c2)cc1` (stereo not drawn) [Example 26, 3-[1-2-(2-chloro-5-fluoro-phenyl)ethoxy]-5-(4-diethoxyphosphorylphenyl)pyridine-2-amine]: the IC50 on ALK fell in the range of 500 to 1000 nM.
On to `CC(Oc1cc(-c2ccc(P(=O)(O)O)cc2)cnc1N)c1cc(F)ccc1Cl` (stereo not drawn) [Example 27, [4-(6-amino-5-[1-(2-chloro-5-fluoro-phenyl)ethoxyl]-3-pyridyl]phenyl]phosphonic acid], for which the IC50 is 1000 to 5000 nM in the data set with SU-DHL-1 and < 100 nM against ALK.
For `CCOP(=O)(OCC)c1ccc(-c2cnc(N)c(O[C@H](C)c3c(Cl)ccc(F)c3Cl)c2)cc1` [Example 28, 3-[(1R)-1-2-(2,6-dichloro-3-fluoro-phenyl)ethoxy]-5-(4-diethoxyphosphorylphenyl)pyridine-2-amine], the IC50 with SU-DHL-1 is 1000 to 5000 nM; at ALK, 100 to 500 nM.
`C[C@@H](Oc1cc(-c2ccc(P(=O)(O)O)cc2)cnc1N)c1c(Cl)ccc(F)c1Cl` [Example 29, [4-(6-amino-5-[(1R)-1-(2,6-dichloro-3-fluoro-phenyl)ethoxyl]-3-pyridyl]phenyl]phosphonic acid]: the IC50 is 1000 to 5000 nM in the data set with SU-DHL-1 and < 100 nM against ALK.
